Entries after “also recorded” stand apart in the source; their conditions may differ. Read-outs that look alike come from different tables or passages of the source.
Experiments:
[1] = test system: mouse bone-marrow-derived mast cells (BMMCs); experiment: Annexin V/DRAQ7 cell death assessment in BMMCs; type: cell-based
Protocol: (§1) To assess cell death, cells were stained with Annexin V and either DRAQ7™ or Via-Probe™ Red Nucleic Acid Stain and analyzed by flow cytometry. To probe pH in acidic organelles, cells were incubated with LysoSensor Blue DND-167, followed by flow cytometry. The relative intracellular pH changes were assessed using the cell-permeable pH-sensitive fluorescent indicator (BCFL-AM). Intracellular calcium changes were assessed using Fluo-4/AM.
To analyze the mechanism by which monensin acts on mast cells, Annexin V/DRAQ7 staining was first adopted to assess the type of cell death induced by monensin, the gating is shown in FIG. 2A. […] Necrotic/late apoptotic (Annexin V^+/DRAQ7^+) cells were also seen, but to a lesser extent (right panel).
BMMCs were treated with 1 μM monensin for 12 and 24 h, followed by Annexin V/DRAQ7 staining to measure cell death. MCs were gated into cells having high and low maturity, as assessed by SSC analysis for granularity (A). The right panels depict the quantification of apoptotic (Annexin V^+/DRAQ7^−) and necrotic (Annexin V^+/DRAQ7^+) cell death in the respective populations (n=3). (B) BMMCs (0.5×10^6 cells) were developed from WT (FIG. 4B) or serglycin^−/− (SG^−/−) mice (data not shown) and were treated with monensin 0-10 μM for 24 h, followed by cell death assessment (Annexin V/DRAQ7 staining). BMMCs (C; 0.5×10^6 cells) or human skin MCs (0.1×10^6 cells; D) were treated with monensin or bafilomycin A 0-10 μM for 30 min, followed by staining with LysoSensor Blue DND-167 (a lysosome probe sensitive to decreased pH) (n=4). BMMCs (0.5×10^6 cells) were treated with either monensin or bafilomycin A (20 nM) alone or in combination (E), followed by measurement of cell death (Annexin V/DRAQ7 staining). (F) BMMCs were treated with monensin or bafilomycin A for 4 and 24 h, followed by assessment of cytosolic pH (n=2). […] To further assess the impact of the secretory granules on monensin-induced cell death, it was evaluated whether the absence of serglycin, a granule-restricted proteoglycan, affects the response to monensin. Both WT and serglycin^−/− BMMCs were sensitive to cell death induced by monensin.

BMMCs [2] = experiment: Granule acidity, LysoSensor Blue DND-167 staining of BMMCs; type: cell-based, mouse; settings: 0-10 μM for 30 min
Protocol: as §1
(§2) BMMCs were treated with 1 μM monensin for 12 and 24 h, followed by Annexin V/DRAQ7 staining to measure cell death. MCs were gated into cells having high and low maturity, as assessed by SSC analysis for granularity (A). The right panels depict the quantification of apoptotic (Annexin V^+/DRAQ7^−) and necrotic (Annexin V^+/DRAQ7^+) cell death in the respective populations (n=3). (B) BMMCs (0.5×10^6 cells) were developed from WT (FIG. 4B) or serglycin^−/− (SG^−/−) mice (data not shown) and were treated with monensin 0-10 μM for 24 h, followed by cell death assessment (Annexin V/DRAQ7 staining). […] To further assess the impact of the secretory granules on monensin-induced cell death, it was evaluated whether the absence of serglycin, a granule-restricted proteoglycan, affects the response to monensin. […]

mMCP-6 = experiment: Translocation of granule protease mMCP-6 into the cytosolic fraction; type: cell-based
[3] = test system: Bone marrow-derived mast cells (BMMCs); experiment: Trypan blue positivity of treated mast cells; type: cell-based, mouse
Caspase 3 & 7 = Caspase 3 & 7 activation in mast cells
[4] = test system: human fibroblast cells (HFL-1); experiment: Cytotoxicity against human fibroblast cells (PrestoBlue)
[5] = test system: Bone marrow-derived mast cells (BMMCs); experiment: BMMC viability, screening and kinetic analysis (Presto Blue / resazurin reduction)
[6] = test system: Bone marrow-derived mast cells (BMMCs); settings: mouse; for Viability % (10 μM): 24 h
[7] = test system: human primary airway epithelial cells (HSAEC); experiment: Cytotoxicity against human primary airway epithelial cells (PrestoBlue); type: cell-based; settings: 0.01-10 μM for 48 h; much less than on mast cells
HEK293 cells = experiment: Cytotoxicity against HEK293 cells (PrestoBlue); type: cell-based, human; settings: 0.01-10 μM for 48 h; much less than on mast cells
[8] = test system: mouse peritoneal cell-derived mast cells (PCMCs); experiment: Annexin V/DRAQ7 cell death assessment in PCMCs; type: cell-based; settings: 24 h incubation
Protocol: as §1
To assess whether monensin also induces cell death of fully mature mast cells, mouse peritoneal cell-derived mast cells (PCMCs) were developed and their sensitivity to monensin was assessed. […] In fact, these mature mast cells were even more sensitive to monensin than were the BMMCs, with significant cell death seen at concentrations down to 10 nM (24 h incubation).

[9] = test system: immature human mast cell line LUVA; experiment: Cell death assessment in LUVA cells; type: cell-based; settings: lower potency than for BMMCs and PCMCs
Protocol: as §1
(§3) Next, the inventors assessed if monensin is cytotoxic for human mast cells by assessing its effect on immature human mast cell lines (LUVA, HMC-1) and on fully mature skin mast cells (hskinMC).

[10] = test system: immature human mast cell line HMC-1; experiment: Cell death assessment in HMC-1 cells; type: cell-based; settings: lower potency than for BMMCs and PCMCs
Protocol: as §1, §3

[11] = test system: human skin mast cells (hskinMC); experiment: Cell death assessment in human skin mast cells; type: cell-based
Protocol: as §1, §3

MCs [12] = experiment: Cell death in absence or presence of caspase inhibitor Z-DEVD; type: cell-based; settings: 1 or 10 μM monensin, with or without Z-DEVD
Protocol: MCs were treated with 1 or 10 μM monensin, either in the absence or presence of a caspase inhibitor: Z-DEVD. Flow cytometry was used to distinguish between viable (Annexin V^−/DRAQ7^−), apoptotic (Annexin V^+/DRAQ7^−) and necrotic (Annexin V^+/DRAQ7^+) cells. […] In line with the latter, the extent of cell death in response to monensin was not affected by the caspase inhibitor, Z-DEVD (FIG. 3).

human skin MCs = experiment: Granule acidity, LysoSensor Blue DND-167 staining of human skin MCs; type: cell-based; settings: 0-10 μM for 30 min
Protocol: as §1, §2

BMMCs [13] = experiment: Cytosolic pH in BMMCs (BCFL-AM); type: cell-based, mouse; settings: 4 and 24 h
Protocol: as §1, §2

MCs [14] = experiment: Intracellular calcium in MCs (Fluo-4/AM); type: cell-based
Protocol: as §1

MCs [15] = experiment: Hexosaminidase release from MCs; type: cell-based
peritoneal MCs = experiment: Mouse peritoneal lavage cells, viability by flow cytometry: MCs; type: cell-based; settings: 0-10 μM for 24 h
Protocol: (§4) Mouse peritoneal cells were treated with monensin and stained with labeled antibodies against CD117 (2B8), FcεRI (MAR-1), Siglec-F (E50-2440), CD11b (M1/70), F4/80 (BM8), CD3 (17A2), CD4 (GK1.5), CD8b (eBioH35-17.2) and CD19 (ebuo1D3).
as §1
(§5) To this end, monensin was added to cells recovered by peritoneal lavage of mice, followed by flow cytometry analysis to assess the effects of monensin on the various cell populations of the peritoneum.
(§6) Peritoneal cell populations were recovered by peritoneal lavage of mice. The gating strategy to identify viable cells and to identify macrophages, lymphocytes, MCs and eosinophils within the peritoneal cell population is shown in (A). […] The panels show quantification of viable (Annexin V^−/Via-Probe^−) cells; in the MC (B), lymphocyte (C), macrophage (D) and eosinophil (E) populations (n=3).

peritoneal lymphocytes = experiment: Mouse peritoneal lavage cells, viability by flow cytometry: lymphocytes; type: cell-based; settings: 0-10 μM for 24 h
Protocol: as §4, §1, §5, §6

peritoneal macrophages = experiment: Mouse peritoneal lavage cells, viability by flow cytometry: macrophages; type: cell-based; settings: 0-10 μM for 24 h
Protocol: as §4, §1, §5, §6

peritoneal eosinophils = experiment: Mouse peritoneal lavage cells, viability by flow cytometry: eosinophils; type: cell-based; settings: 0-10 μM for 24 h
Protocol: as §4, §1, §5, §6

human eosinophils = experiment: Human peripheral blood-derived cells, viability: eosinophils; type: cell-based
Protocol: (§7) Mononuclear cells and granulocytes were purified from heparinized human peripheral blood. Cells were stained with antibodies against CD4 (RPA-T4), CD8 (RPA-T8), CD19 (HIB19) and CD14 (M5E2) or CCR3 (5E8) and CD15 (W6D3) for analysis of mononuclear cells and granulocytes, respectively.
as §1
(§8) To extend these findings into the corresponding human leukocyte populations, the inventors assessed the effects of monensin on eosinophils (B), human blood monocytes (C), lymphocytes (D), and neutrophils (E).

human blood monocytes = experiment: Human peripheral blood-derived cells, viability: monocytes; type: cell-based
Protocol: as §7, §1, §8

human lymphocytes = experiment: Human peripheral blood-derived cells, viability: lymphocytes; type: cell-based
Protocol: as §7, §1, §8

human neutrophils = experiment: Human peripheral blood-derived cells, viability: neutrophils; type: cell-based
Protocol: as §7, §1, §8

[16] = test system: mast cells populating the tracheal tissue; experiment: Histological analysis of tracheal segments (astra blue); design: species or system guinea pig; settings: monensin-treated tracheal tissue
Protocol: Double staining of control (D) and monensin-treated tracheal tissue (E, F) was performed with astra blue.

[17] = test system: human fibroblast cells (HFL-1)
mast cells = settings: cited from earlier work

CO/C1=C\C(C)=C\[C@@H](C)[C@@H](O)[C@@H](C)C/C(C)=C/C=C/[C@H](OC)[C@@H]([C@@H](C)[C@@H](O)[C@H](C)[C@@]2(O)C[C@@H](O)[C@H](C)[C@@H](C(C)C)O2)OC1=O [Bafilomycin A]
Extent of cell death induced by monensin when combined with bafilomycin A ([1]; bafilomycin A 20 nM in combination with monensin, BMMCs): significant reduction | LysoSensor Blue DND-167 staining / granule acidity, BMMCs (BMMCs [2]): profound reduction | Monensin-induced translocation of mMCP-6 to the cytosol in cells treated with bafilomycin A (mMCP-6): abrogated

CC(=O)OC[C@H]1O[C@@H]([S-])[C@H](OC(C)=O)[C@@H](OC(C)=O)[C@@H]1OC(C)=O.CCP(CC)CC.[Au+] [Auranofin]
Viability % (TB) (10 μM) [3]: 100% | Caspase 3 & 7 activation (Caspase 3 & 7): + | Caspase-3 & 7 activation (Caspase 3 & 7): caspase-3 & 7 positivity | Cytotoxicity at 10 μM on HSFib (HFL-1) cells ([4]; 10 μM, 48 h): exhibited cytotoxicity | Viability % (1 μM) ([5]; 1 μM, BMMCs, Presto Blue): 83% | Viability % (10 μM) ([5]; 10 μM, BMMCs, 24 hours, Presto Blue): 1%

CCN(CC)CCOc1ccc(C(=C(Cl)c2ccccc2)c2ccccc2)cc1 [Clomiphene]
Viability % (TB) (10 μM) [3]: 22% | Viability % (1 μM) [6]: 99% | Viability % (10 μM) [6]: 76% | Caspase 3 & 7 activation (Caspase 3 & 7): − | Caspase-3 & 7 activation (Caspase 3 & 7): absence of a positive signal

CC[C@]1([C@H]2O[C@H]([C@@H]3O[C@](O)(CO)[C@@H](C)C[C@H]3C)C[C@H]2C)CC[C@@H]([C@@]2(C)CC[C@@]3(C[C@@H](O)[C@H](C)[C@H]([C@H](C)[C@H](OC)[C@H](C)C(=O)O)O3)O2)O1 [Monensin, 4-[2-[5-ethyl-5-[5-[6-hydroxy-6-(hydroxymethyl)-3,5-dimethyl-oxan-2-yl]-3-methyl-oxolan-2-yl]oxolan-2-yl]-9-hydroxy-2,8-dimethyl-1,6-dioxaspiro[4.5]dec7-yl]-3-methoxy-2-methyl-pentanoic acid]
Viability % (TB) (10 μM) [3]: 12% | Concentration from which a cytotoxic effect was exhibited, HSAEC [7]: ≥ 1000 nM | Concentration from which a cytotoxic effect was exhibited, HEK293 (HEK293 cells): ≥ 1000 nM | Type of cell death in serglycin−/− BMMCs ([1]; 0-10 μM for 24 h, serglycin−/− BMMCs): predominantly Annexin V/DRAQ7 double-positive | Sensitivity of mast cells with high granularity versus low granularity ([1]; 1 μM, 12 and 24 h, SSC gating): markedly more sensitive | Type of cell death in WT BMMCs (Annexin V/DRAQ7) ([1]; WT BMMCs): predominantly Annexin V single positivity; also recorded: predominantly apoptotic cell death | Concentrations with significant cell death in PCMCs (down to) [8]: ≥ 10 nM | Cytotoxicity to LUVA cells [9]: cytotoxic | Cytotoxicity to HMC-1 cells [10]: cytotoxic | Sensitivity of human skin mast cells ([11]; especially after longer incubation time): considerable sensitivity | Type of cell death in human skin mast cells ([11]; sign of necrosis almost negligible): mainly apoptosis | Extent of cell death in presence of caspase inhibitor Z-DEVD (MCs [12]): not affected | LysoSensor Blue DND-167 staining / granule acidity, BMMCs (BMMCs [2]): marked reduction | LysoSensor Blue DND-167 staining, human skin MCs (human skin MCs): marked reduction | Cytosolic pH (BMMCs [13]): significant drop | Translocation of mMCP-6 into the cytosolic fraction (mMCP-6): profound translocation | Cytosolic calcium (MCs [14]): did not cause an increase | Release of hexosaminidase (MCs [15]): did not cause | Concentrations at which peritoneal MCs were extensively depleted (down to) (peritoneal MCs): ≥ 10 nM | Response of peritoneal lymphocytes (peritoneal lymphocytes): resistant | Response of peritoneal macrophages (peritoneal macrophages): resistant | Concentrations with substantial cell death of peritoneal eosinophils (down to) (peritoneal eosinophils): ≥ 10 nM | Response of human eosinophils (human eosinophils): sensitive | Viability of human monocytes (human blood monocytes): no reduction | Viability of human lymphocytes (human lymphocytes): no reduction | Response of human neutrophils (human neutrophils): only marginally affected | Proportion of mast cells having a defined nucleus [16]: profound reduction | Viability % (1 μM) [6]: 72% | Viability % (10 μM) [6]: 66% | Cytotoxicity at 10 μM on HSFib (HFL-1) cells [17]: exhibited cytotoxicity | Histamine release on longer incubation (mast cells; 5 hr incubation with mast cells): potent secretagogue | Concentrations able to prevent histamine release from mast cells stimulated by secretagogues (mast cells; secretagogues such as calcium ionophore A23187): 0.6 to 150 µg/mL | Caspase 3 & 7 activation (Caspase 3 & 7): − | Caspase-3 & 7 activation (Caspase 3 & 7): absence of a positive signal; also recorded: does not cause caspase-3 & 7 activations | Concentration from which a cytotoxic effect was exhibited, HFL-1 ([4]; 0.01-10 μM for 48 h, much less than on mast cells): ≥ 1000 nM | Selectivity of cytotoxic effect, mast cells versus HFL-1, HSAEC, HEK-293 [5]: high and selective cytotoxic effect on mast cells | Potency against BMMCs compared with the other drugs ([5]; 0.01-10 μM for 24, 48 or 72 h): markedly more potent than any of the other three drugs | Concentrations showing considerable toxicity to BMMCs (down to) ([5]; 0.01-10 μM for 24, 48 or 72 h, especially after prolonged (72 h) incubation): ≥ 10 nM

From patent US20240226057A1, “NEW USE OF MONENSIN” (MAST PHARMA AB, priority 2021, published 2024)
